Reference: US20060041016A1, “Composition and method for the treatment of psoriasis” (priority 2004, published 2006)

Tests used:
[1] = tested on: eye; settings: tested in the form of an isopropyl ester prodrug; cited from earlier work
[2] = tested on: Normal human epithelial keratinocytes; assay: Antiproliferative effect on cultured keratinocytes, crystal violet method, absorbance at 595 nm; format: cell-based; settings: for antiproliferative potency relative to PGA2 and the other analogues: normal human epithelial keratinocytes, 7 days incubation, FIG. 1-4
Experimental: Normal human epithelial keratinocytes, and keratinocyte growth medium (KGM^R-2 Bulletkit; CC-3107 from Clonetics, USA) were purchased from Göteborgs Termometerfabrik AB (Västra Frölunda, Sweden). The cells were cultured at 37° C. in 5% CO2 humidified air according to standard procedure. The cells used for the experiments were at the third passage. 48-well plates were used for the cultures. In each well about 3000 cells were seeded. For each concentration of prostaglandin analogues two wells were used. After completion of the incubation, the wells were washed twice with phosphate buffered saline (PBS). Thereafter the cells were fixed with 1% glutaraldehyde in PBS at +4° C. for 15 min. The wells were then again washed twice with PBS, and thereafter treated with 0.1% crystal violet solution (500 μl/well). The wells were then rinsed with distilled water for 15 sec, three times, and were left to dry completely. The absorbed colour was solubilized in 500 μl 2.5% sodiumdodecyl-sulphate (SDS) in distilled water for 3 hours. The absorbance of the fluid in the wells was determined using a microtiter well spectrophotometer (Multiscan RC V1.3-0) at 595 nm. The experiments were performed in duplicate (two wells). The incubation time was 7 days, and the incubation medium was changed after 3-4 days. The prostaglandin analogues were dissolved directly in the incubation medium. After appropriate incubation the density of cells in the wells was determined using the crystal violet method described above.

[3] = tested on: BAX gene expression (BAX-protein) in human keratinocytes; assay: Expression of the pro-apoptotic BAX gene by immunocytochemistry; format: cell-based
Experimental: The cells, cultivated essentially as described above, were trypsinized, the solution centrifuged, and the pellet resuspended and transferred to a microscopic slide with cover slip. Immunocytochemistry was performed according to standard technique. BAX (N-20)-affinity purified rabbit polyclonal antibodies were purchased from Santa Cruz Biotechnology Inc. (Santa Cruz, Calif.), and used at a dilution of 1:200. Secondary goat-antirabbit antibodies conjugated to horseradish peroxidase (Dako Envision+TM) obtained from Dako (Carpinteria, Calif., USA) were used for detecting the primary antibodies. After appropriate rinsing the preparations were incubated with […] as chromogenic substrate for the horseradish peroxidase for 10 min at room temperature. […] The preparations were finally examined in a Nikon FTX fluorescence microscope equipped with camera, and colour photographs were taken of representative cells.
In another set of experiments, intravital staining for detection of apoptosis/necrosis in keratinocytes cultivated as above in the absence and presence of BR280 (17-phenyl-18,19,20-trinor-PGA2) was performed with propidium-iodide/Hoechst 33342 (bisbenzimide) purchased from Sigma Chemical Company (St. Louis, Mo.). […] The cells were examined in a Nikon FTX fluorescence microscope equipped with a UV-2A filter and camera. […]

[4] = tested on: human keratinocytes; assay: Intravital staining with propidium-iodide/Hoechst 33342 for apoptosis/necrosis; format: cell-based; settings: keratinocytes exposed for 7 days
Experimental: In another set of experiments, intravital staining for detection of apoptosis/necrosis in keratinocytes cultivated as above in the absence and presence of BR280 (17-phenyl-18,19,20-trinor-PGA2) was performed with propidium-iodide/Hoechst 33342 (bisbenzimide) purchased from Sigma Chemical Company (St. Louis, Mo.). A mixture of propidium-iodide (10 μg/ml) and Hoechst 33342 (5 μg/ml) was added to the culture medium. The cells were incubated in the medium for 10 min at 37° C. The medium was harvested for free floating cells while the attached cells were washed once with Ca^++/Mg^++ free Hanks solution (Sigma Chemical Company), or PBS. Thereafter 1.5 ml of a 0.5% trypsin/EDTA solution (Ca^++/Mg^++ free Hanks solution, or PBS) was added and incubation was carried out for 5 min at 37° C. The solution was then centrifuged for 1 min (500 g). The pellet was resuspended in 0.5 ml PBS, and the solution was centrifuged as above. The pellet was then suspended in 20 μl PBS, and the solution containing the cells was placed on a microscopic slide with cover slip. The cells were examined in a Nikon FTX fluorescence microscope equipped with a UV-2A filter and camera. Colour photographs were taken of representative cells. The prostaglandin analogue (BR280) was diluted directly in the culture medium. […]

[5] = tested on: human eye; assay: Hyperemia/irritation test using the human eye as a model; format: in vivo; settings: for hyperemia and ocular irritation or pain after application (in words): human eye, topical, 3 individuals, about 10^−4 M and about 3×10^−4 M; for Difference in irritation PGA2 - JB991 acid / Difference in hyperemia PGA2 - JB991 acid: topical on eye, n = 3; for Difference in irritation PGA2 - JB991 acid: categorical scale, Mean ± SEM; for Difference in hyperemia PGA2 - JB991 acid: scale 0-3, Mean ± SEM
Experimental: PGA2 and 17-phenyl-18,19,20-trinor-PGA2, synthesized as described above, were formulated in vehicles suitable for hyperemia/irritation tests using the human eye as a model. The superficial redness of the eyes was documented by colour photographs before, and 15, 30, 60 and 120 min after application of the test substances. One eye was treated with the prostaglandin analogue and the other eye with the vehicle only. Ocular irritation or pain was recorded at the same time points. The two test substances at a concentration of 26 μg/ml (about 10^−4 M) were tested in the same eye of three healthy individuals a few days apart.
About a week later, a higher concentration of each compound, 84 μg/ml of PGA2 and 96 μg/ml of 17-phenyl-18,19,20-trinor-PGA2 (both concentrations corresponding to about 3×10^−4 M) was again tested a few days apart in the same eyes of the same individuals. The concentrations used are relevant since for the treatment of psoriasis the drugs have to be used at approximately this concentration range. The hyperemia was evaluated on a scale from 0 (no hyperemia) to 3 (maximum hyperemia) using half steps. A similar categorical scale was used for the ocular irritation or pain. […]

[6] = Dose 2 (84 μg/ml; JB991 acid 96 μg/ml), 0 min
[7] = Dose 2 (84 μg/ml; JB991 acid 96 μg/ml), 15 min
[8] = Dose 2 (84 μg/ml; JB991 acid 96 μg/ml), 30 min
[9] = Dose 2 (84 μg/ml; JB991 acid 96 μg/ml), 60 min
[10] = Dose 2 (84 μg/ml; JB991 acid 96 μg/ml), 120 min

In the case of `O=C(O)CCC/C=C\CC1C(=O)C=CC1CCC(O)CCc1ccccc1` (stereo not drawn), the “hyperemia in the eye” value [1] is given as “caused some hyperemia in the eye”.
In the case of `O=C(O)CCC/C=C\CC1C(=O)C=CC1/C=C/C(O)COc1cccc(C(F)(F)F)c1` (stereo not drawn) [BR277, 16-phenoxy-(3-trifluormethyl)-17,18,19,20-tetranor-PGA2], the “antiproliferative potency relative to PGA2 and the other analogues” value [2] is reported as “next most potent of the PGA2 analogues”.
In the case of `O=C(O)CCC/C=C\CC1C(=O)C=CC1CCC(O)CCc1ccccc1` (stereo not drawn) [BR278, 13,14-dihydro-17-phenyl-18,19,20-trinor-PGA2], the “antiproliferative potency relative to PGA2 and the other analogues” value [2] is reported as “lowest potency”.
In the case of `O=C(O)CCC/C=C\CC1C(=O)C=CC1/C=C/C(O)CCc1ccccc1` (stereo not drawn) [BR280, 17-phenyl-18,19,20-trinor-PGA2], the “antiproliferative potency relative to PGA2 and the other analogues” value [2] is reported as “even more potent than PGA2”, the “BAX gene expression (BAX-protein) immunostaining” value ([3]; human keratinocytes exposed at different concentrations, 2 days incubation) is reported as “could be demonstrated” and the “BAX gene expression effect at low concentrations” value ([3]; lower concentrations than 10^−5 M) is reported as “weak or absent”. The “signs of apoptosis by intravital staining” value [4] was “Markedly condensed and fragmented nuclei and apoptotic bodies could be demonstrated” and the “hyperemia and ocular irritation or pain after application (in words)” value [5] was “no hyperemic effect or irritative effect whatsoever”.
For `CCCCC[C@H](O)/C=C/[C@H]1C=CC(=O)[C@@H]1C/C=C\CCCC(=O)O` [PGA2, prostaglandin A2], the complete cell death ([2]; highest concentration tested) was “Neither PGA2 nor any of the analogues tested were able to cause complete cell death”, the “Difference in irritation PGA2 - JB991 acid” value (from here on “Difference in irritation PGA2”) ([5]; Dose 1 (26 μg/ml), 0 min) was 0.00 ± 0.00 and the “Difference in hyperemia PGA2 - JB991 acid” value (from here on “Difference in hyperemia PGA2”) ([5]; Dose 1 (26 μg/ml), 0 min) was 0.00 ± 0.00. For the same compound, the “Difference in irritation PGA2” value ([5]; Dose 1 (26 μg/ml), 15 min) was 1.00 ± 0.29, the “Difference in hyperemia PGA2” value ([5]; Dose 1 (26 μg/ml), 15 min) was 1.33 ± 0.60 and the “Difference in irritation PGA2” value ([5]; Dose 1 (26 μg/ml), 30 min) was 1.17 ± 0.33. The “Difference in hyperemia PGA2” value ([5]; Dose 1 (26 μg/ml), 30 min) was 1.17 ± 0.44, the “Difference in irritation PGA2” value ([5]; Dose 1 (26 μg/ml), 60 min) was 0.50 ± 0.29 and the “Difference in hyperemia PGA2” value ([5]; Dose 1 (26 μg/ml), 60 min) was 0.67 ± 0.44. For the same compound, the “Difference in irritation PGA2” value ([5]; Dose 1 (26 μg/ml), 120 min) was 0.17 ± 0.17, the “Difference in hyperemia PGA2” value ([5]; Dose 1 (26 μg/ml), 120 min) was 0.17 ± 0.17 and the “Difference in irritation PGA2” value [5, 6] was 0.00 ± 0.00. The “Difference in hyperemia PGA2” value [5, 6] was 0.00 ± 0.00, the “Difference in irritation PGA2” value [5, 7] was 1.83 ± 0.44 *) and the “Difference in hyperemia PGA2” value [5, 7] was 2.17 ± 0.44 **). For the same compound, the “Difference in irritation PGA2” value [5, 8] was 1.33 ± 0.60, the “Difference in hyperemia PGA2” value [5, 8] was 2.17 ± 0.44 **) and the “Difference in irritation PGA2” value [5, 9] was 0.83 ± 0.44. The “Difference in hyperemia PGA2” value [5, 9] was 1.33 ± 0.60, the “Difference in irritation PGA2” value [5, 10] was 0.33 ± 0.17 and the “Difference in hyperemia PGA2” value [5, 10] was 0.50 ± 0.29. The “hyperemia and ocular irritation or pain after application (in words)” value [5] was “causes both these disadvantageous side-effects”.
